Patent US20130289070A1, “Use of Levocabastine for Modulating Generation of Pro-Inflammatory Cytokines” (Bausch & Lomb Incorporated, priority 2007, published 2013)

Test system: EoL-1 (human eosinophilic leukaemia cell line) cells
Test: TNF-α-induced cytokine release, non-differentiated EoL-1 cells (NO PMA) (Luminex)
Format: cell-based
Parameters: key to Fractalkine (NO PMA), p of decrement / IL-1α (NO PMA), p of decrement / IL-1β (NO PMA), p of decrement / IL-1ra (NO PMA), p of decrement / IL-5 (NO PMA), p of decrement / IL-7 (NO PMA), p of decrement / IL-8 (NO PMA), p of decrement / IP-10 (NO PMA), p of decrement / MCP-1 (NO PMA), p of decrement / MIP-1β (NO PMA), p of decrement / VEGF (NO PMA), p of decrement: ns = non significant
Protocol: EoL-1 (human eosinophilic leukaemia cell line) cells (Saito et al., 1985; Mayumi, 1992) were maintained in RPMI-1640 medium with L-glutamine supplemented with 10% (v/v) FBS at 37° C. in a humidified atmosphere with 5% CO2. Where indicated, 24 h before the experiment 25 ng/mL PMA ((phorbol 12-myristate 13-acetate, purchased from Sigma Aldrich) was added to the medium to induce eosinophil granulation and differentiation (Ohtsu et al., 1993; Zimmermann et al., 2000).
Half-million cells were aliquoted per point in a 24 well plate; each experiment was performed in triplicate and carried out in parallel with eosinophils differentiated and non differentiated with PMA (25 ng/mL, 24 h). Cells were suspended in low serum medium (RPMI-1640, 0.1% (v/v) FBS). TNF-α was used to induce cytokine secretion as previously described by Steube et al. (2000), and the net release was obtained by comparison to the basal (non-TNF-α treated). In the first experiment we evaluated the concentration and time relation between TNF-α stimulation and cytokine release. Therefore, 5, 10, and 25 ng/mL of TNF-α was administered to the cells at 0, ½, 1, 2, 3, 6, 12 and 24 h (data not shown). An aliquot of 150 μL of supernate was collected for cytokines' analysis. […] Differentiated and non-differentiated EoL-1 cells were exposed from 0.1 to 2.3 mM levocabastine ([…]Levocabastine 0.05% solution eye drops containing cyclodextrins, without benzalkonium chloride), and aliquots of the supernates were collected after 12 and 24 h. The content of cytokines at time zero was estimated by treating the cells with 400 nM calcimycin (A-23187), which is a cytolytic agent that frees all the mediators from the cytoplasmic compartment. In addition, for each experiment we tested the effect of the vehicle, which was added to the wells in a concentration equal to the maximum amount used for drug dilution.
Samples (supernates 12 and 24 h) in triplicate were analyzed using Luminex 200™ (Luminex, Austin, Tex.) and Beadview software v1.0 (Upstate Cell Signaling Solutions, Temecula, Calif.).
All data are presented as mean±SEM for the indicated number of experiments. Statistical significance was determined by Newman-Keuls test after ANOVA using GraphPad Prism (version 3.0; GraphPad Software Inc., San Diego, Calif., USA). P-values<0.05 were considered to be significant.

[1] = 24 h, FN + Levocabastine 2 mM vs FN
[2] = 24 h, Levocabastine 2 mM vs TNF-α

`C[C@@H]1CN([C@H]2CC[C@](C#N)(c3ccc(F)cc3)CC2)CC[C@]1(C(=O)O)c1ccccc1` [Levocabastine, levocabastine] was tested, and the “IL-5 (NO PMA), p of decrement” value (12 h, TNF-α vs Lev 0.5 mM) was “ns”, the “IL-7 (NO PMA), p of decrement” value (12 h, TNF-α vs Lev 0.5 mM) was “ns” and the “IL-8 (NO PMA), p of decrement” value (12 h, TNF-α vs Lev 0.5 mM) was “ns”. The “IP-10 (NO PMA), p of decrement” value (12 h, TNF-α vs Lev 0.5 mM) was “ns”, the “MCP-1 (NO PMA), p of decrement” value (12 h, TNF-α vs Lev 0.5 mM) was “ns” and the “MIP-1β (NO PMA), p of decrement” value (12 h, TNF-α vs Lev 0.5 mM) was “ns”. For the same compound, the “VEGF (NO PMA), p of decrement” value (12 h, TNF-α vs Lev 0.5 mM) was “ns”, the “Fractalkine (NO PMA), p of decrement” value (12 h, TNF-α vs Lev 1.0 mM) was “ns” and the “IL-1ra (NO PMA), p of decrement” value (12 h, TNF-α vs Lev 1.0 mM) was “ns”. For the same compound, the “IL-1α (NO PMA), p of decrement” value (12 h, TNF-α vs Lev 1.0 mM) was “ns”, the “IL-1β (NO PMA), p of decrement” value (12 h, TNF-α vs Lev 1.0 mM) was “ns” and the “IL-5 (NO PMA), p of decrement” value (12 h, TNF-α vs Lev 1.0 mM) was “ns”. For the same compound, the “IL-7 (NO PMA), p of decrement” value (12 h, TNF-α vs Lev 1.0 mM) was “ns”, the “IL-8 (NO PMA), p of decrement” value (12 h, TNF-α vs Lev 1.0 mM) was “ns” and the “IP-10 (NO PMA), p of decrement” value (12 h, TNF-α vs Lev 1.0 mM) was “ns”. The “MCP-1 (NO PMA), p of decrement” value (12 h, TNF-α vs Lev 1.0 mM) was “ns”, the “MIP-1β (NO PMA), p of decrement” value (12 h, TNF-α vs Lev 1.0 mM) was “ns” and the “VEGF (NO PMA), p of decrement” value (12 h, TNF-α vs Lev 1.0 mM) was “ns”. The “Fractalkine (NO PMA), p of decrement” value (12 h, TNF-α vs Lev 2.3 mM) was “ns”, the “IL-1ra (NO PMA), p of decrement” value (12 h, TNF-α vs Lev 2.3 mM) was “ns” and the “IL-1α (NO PMA), p of decrement” value (12 h, TNF-α vs Lev 2.3 mM) was “ns”. The “IL-1β (NO PMA), p of decrement” value (12 h, TNF-α vs Lev 2.3 mM) was “ns”, the “IL-5 (NO PMA), p of decrement” value (12 h, TNF-α vs Lev 2.3 mM) was “ns” and the “IL-7 (NO PMA), p of decrement” value (12 h, TNF-α vs Lev 2.3 mM) was “ns”. The “IL-8 (NO PMA), p of decrement” value (12 h, TNF-α vs Lev 2.3 mM) was “ns”, the “IP-10 (NO PMA), p of decrement” value (12 h, TNF-α vs Lev 2.3 mM) was “ns” and the “MCP-1 (NO PMA), p of decrement” value (12 h, TNF-α vs Lev 2.3 mM) was “ns”. For the same compound, the “MIP-1β (NO PMA), p of decrement” value (12 h, TNF-α vs Lev 2.3 mM) was “ns”, the “VEGF (NO PMA), p of decrement” value (12 h, TNF-α vs Lev 2.3 mM) was “ns” and the “MIP-1α (NO PMA), change of secretion” value (12 h, TNF-α vs Lev 0.1-2.3 mM) was “concentration dependent increase of”. For the same compound, the “MIP-1α (NO PMA), p of increase” value (12 h, TNF-α vs Lev 0.1-2.3 mM) was “cytokine secretion p < 0.01”, the “RANTES (NO PMA), change of secretion” value (12 h, TNF-α vs Lev 0.1-2.3 mM) was “increase of cytokine secretion” and the “RANTES (NO PMA), p of increase” value (12 h, TNF-α vs Lev 0.1-2.3 mM) was < 0.001. The “Fractalkine (NO PMA), p of decrement” value [1] was “ns”, the “G-CSF (NO PMA), p of decrement” value [1] was “ns” and the “GM-CSF (NO PMA), p of decrement” value [1] was “ns”. For the same compound, the “IL-1ra (NO PMA), p of decrement” value [1] was “P < 0.001”, the “IL-1α (NO PMA), p of decrement” value [1] was “ns” and the “IL-1β (NO PMA), p of decrement” value [1] was “ns”. The “IL-5 (NO PMA), p of decrement” value [1] was “ns”, the “IL-6 (NO PMA), p of decrement” value [1] was “P < 0.001” and the “IL-7 (NO PMA), p of decrement” value [1] was “ns”. The “IL-8 (NO PMA), p of decrement” value [1] was “P < 0.001”, the “IL-10 (NO PMA), p of decrement” value [1] was “ns” and the “IL-12p40 (NO PMA), p of decrement” value [1] was “P < 0.05”. The “IP-10 (NO PMA), p of decrement” value [1] was “ns”, the “MCP-1 (NO PMA), p of decrement” value [1] was “Increase” and the “MIP-1α (NO PMA), p of decrement” value [1] was “Increase”. For the same compound, the “MIP-1β (NO PMA), p of decrement” value [1] was “ns”, the “RANTES (NO PMA), p of decrement” value [1] was “Increase” and the “TGF-α (NO PMA), p of decrement” value [1] was “ns”. The “VEGF (NO PMA), p of decrement” value [1] was “P < 0.001”, the “Fractalkine (NO PMA), p of decrement” value [2] was “ns” and the “G-CSF (NO PMA), p of decrement” value [2] was “ns”. The “GM-CSF (NO PMA), p of decrement” value [2] was “ns”, the “IL-1ra (NO PMA), p of decrement” value [2] was “P < 0.001” and the “IL-1α (NO PMA), p of decrement” value [2] was “ns”. For the same compound, the “IL-1β (NO PMA), p of decrement” value [2] was “ns”, the “IL-5 (NO PMA), p of decrement” value [2] was “ns” and the “IL-6 (NO PMA), p of decrement” value [2] was “P < 0.001”. For the same compound, the “IL-7 (NO PMA), p of decrement” value [2] was “ns”.
